Read-outs that look alike come from different tables or passages of the source.
Key:
Cav2.3 [1] = target: T1, Cav2.3 (Homo sapiens, UniProt Q15878); assay: Human Cav2.3 channel calcium-influx assay; type: cell-based; conditions: HEK-293 T-Rex/Kir2.1 cells with inducible Cav2.3e-β4-α2δ1; Fluo8 fluorescence; 8-point dose response from 30 μM; no pluronic acid; read-out: Cav2.3 (pIC50) (converted)
Protocol: HEK-293 T-Rex cells were transfected with pcDNA3.1-Kir2.1 to generate a stable cell line. After antibiotic selection, the obtained stable pools were analysed using FLIPR^TETRA(membrane potential assay), and a limiting dilution was performed and a HEK-293 T-Rex/Kir2.1 clone was selected. The clone was transfected with pcDNA3.1-Cav2.3e and pBud-Cav-β4-α2δ1 to generate a stable cell line where the Cav2.3e expression is inducible. After antibiotic selection, functional clone pool analysis and two successive limiting dilutions, the final clone underwent a qPCR analysis and a biophysical and pharmacological validation using patch-clamp.
A compound plate, containing 10 test compounds in eight-points dose response with n=4, was prepared. Test compounds dose response curves were prepared in automated fashion in 100% DMSO at CyBio Felix and starting from a stock solution in 100% DMSO; a defined volume was serially moved into destination wells pre-filled with the desired DMSO volume; stock solution concentration volumes were dependent on the final compounds concentrations to be tested and the final DMSO content used in the assay. For the assay test compounds dose response curves ranged from 30 μM and half log dilution with 0.3% final DMSO. In order to obtain the 8-points dose response curve all the concentrations were created by starting from a 10 mM DMSO stock solution and then moving 9.5 μL into a destination well pre-filled with 20.5 μL of 100% DMSO and repeating this step seven times. This initial step was done into 96 MTP plates, 10 compounds/plate. One 384 MTP was then reformatted to contain all the 10 compounds at 8 concentrations, quadruplicate data points. This so obtained 384 MTP compound plate served as source plate in a “mother to child” process with a CyBi®-Well dispenser in which 0.7 μL of compounds were moved into a destination plate pre-filled with 57.6 μL of Tyrode's buffer 0 mM K^+, thus obtaining 4× concentrated compounds solution. In columns 1-2 and 23-24 the control wells were added. Both “source” compound plate and “destination” compound plate were barcoded and a relationship between the two plates was thus generated.
The day before the experiment, cells were detached by gentle wash with DPBS, followed by 5 min incubation at 37° C. with Trypsin solution. Detached cells were diluted with OptiMEM+Doxycycline at 0.2 μg/mL, counted and plated in Poly-D-Lysine coated black/clear bottom (15.000 c/well in 20 μl/well) by the use of a MATRIX WellMate dispenser. Plates were placed into a humidified incubator at 37° C. with 5% CO2 until the experimental day. 24 h after seeding 10 μL/well of 1.5× Fluo8 NW dye solution prepared in Tyrode's buffer 0 mM K^+ were added on top of the seeding medium. Cell plates were incubated for 40-60 min at RT in the dark. We then Injected off-line 10 μL/well of test compounds and controls 4× concentrated in Tyrode's Buffer 0 mM K+ with the CyBi®-Well instrument. Cell plates were incubated 3 minutes at RT. Finally, we injected 20 μL/well of 3× concentrated activator solution (K20-Na130-Ca2 buffer: 20 mM KCl, 130 mM NaCl, 2 mM CaCl2, 10 mM HEPES, 10 mM Glucose, final concentrations, prepared starting from “K0-Na150-Ca2” and “K150-Na0-Ca2” buffers) at FDSS7000EX instrument and read emitted fluorescence for 130 seconds.
Data analysis was performed with Genedata Screener® software and reported compounds activity as % effect in relation to the normalization standards. The Kinetic Response Value (KRV) is calculated as follows:
KRV=Maximal fluorescence recorded from second 5 to second 130 minus baseline fluorescence, computed as average from second 1 to second 2, of the kinetic trace. The KRV was normalized versus Neutral Controls and Inhibitor Controls in order to obtain the Activity[%] for each well. […] Therefore, the compound activity values were scaled (based on the two references) to a common range (two-point normalization). […]
Target sequence in this assay (Q15878 1-2270 isoform Q15878-3): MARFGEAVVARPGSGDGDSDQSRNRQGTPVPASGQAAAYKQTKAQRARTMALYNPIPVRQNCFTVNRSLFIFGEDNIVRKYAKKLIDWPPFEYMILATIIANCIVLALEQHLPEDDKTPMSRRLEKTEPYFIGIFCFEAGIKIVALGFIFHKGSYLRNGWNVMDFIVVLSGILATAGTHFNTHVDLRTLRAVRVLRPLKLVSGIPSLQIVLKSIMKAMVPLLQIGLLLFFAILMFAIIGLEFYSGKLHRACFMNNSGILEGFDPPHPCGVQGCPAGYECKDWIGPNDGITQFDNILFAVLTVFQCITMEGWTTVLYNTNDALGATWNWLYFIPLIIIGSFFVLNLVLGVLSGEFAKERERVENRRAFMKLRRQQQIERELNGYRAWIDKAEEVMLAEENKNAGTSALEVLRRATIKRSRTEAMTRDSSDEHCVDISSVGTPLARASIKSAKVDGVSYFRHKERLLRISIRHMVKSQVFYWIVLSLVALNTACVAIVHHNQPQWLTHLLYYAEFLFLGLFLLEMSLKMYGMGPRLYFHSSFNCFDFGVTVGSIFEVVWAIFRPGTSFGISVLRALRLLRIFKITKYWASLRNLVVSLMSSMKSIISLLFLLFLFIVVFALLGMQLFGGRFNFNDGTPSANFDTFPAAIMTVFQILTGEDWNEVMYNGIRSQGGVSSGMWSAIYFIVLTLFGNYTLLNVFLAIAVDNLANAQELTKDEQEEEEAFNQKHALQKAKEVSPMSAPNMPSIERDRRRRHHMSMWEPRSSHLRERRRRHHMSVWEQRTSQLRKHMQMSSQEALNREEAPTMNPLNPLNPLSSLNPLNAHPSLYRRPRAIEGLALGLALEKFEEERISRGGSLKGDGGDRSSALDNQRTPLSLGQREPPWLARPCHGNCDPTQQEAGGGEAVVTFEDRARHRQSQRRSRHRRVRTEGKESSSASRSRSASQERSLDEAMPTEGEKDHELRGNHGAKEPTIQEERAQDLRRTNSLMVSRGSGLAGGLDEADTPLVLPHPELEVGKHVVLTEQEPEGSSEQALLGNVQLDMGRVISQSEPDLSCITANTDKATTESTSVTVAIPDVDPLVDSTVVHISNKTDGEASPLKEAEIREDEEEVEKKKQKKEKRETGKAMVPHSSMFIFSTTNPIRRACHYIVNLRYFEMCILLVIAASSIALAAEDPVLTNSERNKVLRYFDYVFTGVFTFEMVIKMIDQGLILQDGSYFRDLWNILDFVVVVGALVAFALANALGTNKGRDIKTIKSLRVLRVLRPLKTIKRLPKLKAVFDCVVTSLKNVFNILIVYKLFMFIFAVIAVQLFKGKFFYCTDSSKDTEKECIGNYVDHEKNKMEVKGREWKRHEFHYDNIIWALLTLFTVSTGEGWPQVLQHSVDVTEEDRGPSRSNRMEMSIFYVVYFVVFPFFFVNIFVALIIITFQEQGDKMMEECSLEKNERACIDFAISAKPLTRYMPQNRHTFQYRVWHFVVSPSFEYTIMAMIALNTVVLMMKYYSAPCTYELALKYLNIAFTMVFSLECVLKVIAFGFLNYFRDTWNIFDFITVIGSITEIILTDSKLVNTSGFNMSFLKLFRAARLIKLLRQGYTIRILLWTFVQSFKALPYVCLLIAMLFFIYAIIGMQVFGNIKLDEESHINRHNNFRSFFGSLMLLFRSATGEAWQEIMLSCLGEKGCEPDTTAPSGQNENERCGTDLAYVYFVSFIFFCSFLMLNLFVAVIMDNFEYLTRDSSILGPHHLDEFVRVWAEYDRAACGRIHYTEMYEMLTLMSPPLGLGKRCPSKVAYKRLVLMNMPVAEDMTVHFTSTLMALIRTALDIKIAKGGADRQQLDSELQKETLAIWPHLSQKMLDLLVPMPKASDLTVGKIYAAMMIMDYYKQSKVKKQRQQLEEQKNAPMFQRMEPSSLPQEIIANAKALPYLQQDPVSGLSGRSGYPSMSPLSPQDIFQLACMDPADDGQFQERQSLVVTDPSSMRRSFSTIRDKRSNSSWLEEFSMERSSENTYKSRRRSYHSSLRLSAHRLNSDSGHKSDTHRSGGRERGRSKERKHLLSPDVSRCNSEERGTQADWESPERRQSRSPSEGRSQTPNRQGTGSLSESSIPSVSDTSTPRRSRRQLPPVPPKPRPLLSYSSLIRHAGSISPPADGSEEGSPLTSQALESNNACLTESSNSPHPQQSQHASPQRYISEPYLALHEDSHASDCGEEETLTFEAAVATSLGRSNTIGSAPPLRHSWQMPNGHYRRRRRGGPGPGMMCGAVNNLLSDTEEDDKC

[2] = target: Cav2.3 dependent current in HEK-293 T-Rex/Kir2.1/Cav2.3e-β4-α2δ1 cells (Homo sapiens, UniProt Q15878); assay: Whole-cell patch clamp assay (QPatch 16X); type: cell-based; conditions: whole-cell voltage clamp, room temperature, inward current density; mean ± S.E; read-out: Cav2.3 (pIC50) (converted)
Chain of Cav2.3 dependent current in HEK-293 T-Rex/Kir2.1/Cav2.3e-β4-α2δ1 cells (Q15878 1-2270 isoform Q15878-3): as above
Protocol: HEK-293 T-Rex/Kir2.1/Cav2.3e-β4-α2δ1 cells were seeded 96 hours before experiment and doxycycline at 0.2 μg/mL was added 24 hours before experiment. Just before the experiments cells were washed twice with D-PBS w/o Ca2+/Mg2+ and gently detached from the flask with Detachin. Cells were then re-suspended in the suspension solution (25 mL EX-CELL ACF CHO medium; 0.25 mL of 100× Penicillin/Streptomycin) and placed on the Automated Patch-clamp platform (QPatch 16X).
Standard whole-cell voltage clamp experiments were performed at room temperature using the single hole technology and the following intracellular and extracellular solutions (ICS and ECS, respectively) were used. ICS (mM): CsF 60, CsCl 50, NaCl 10, EGTA 20, BAPTA 5, HEPES 10, NaGTP 0.3, MgATP 5 (pH 7.2; ECS (mM): NMDG-Cl 120, BaCl2 20, HEPES 10, EGTA 7 (pH 7.4). After establishment of the seal and the passage in the whole-cell configuration, the Cav2.3 dependent current was evoked by challenging the cells with the following voltage protocol: the plasma membrane was held at −80 mV then a 50 ms-long depolarizing pulse at 0 mV, followed by a 50 ms-long hyperpolarizing pulse at −100 mV were applied and finally the plasma membrane was held back to −80 mV. This voltage protocol was applied every 10 seconds. Cav2.3 dependent current was first measured in control condition (vehicle, 0.1% DMSO), in the presence of increasing concentration of the compound under investigation and finally SNX 482 was added to fully block any R-type Cav2.3 dependent current.
For data collection, the Sophion proprietary software was used while the analysis was performed off-line using Excel and GraphPad Prism. The inward current (Area Under Curve) measured during each depolarizing pulse was normalized to cell membrane capacitance (Cm) to obtain the average inward current density in each condition (control, compound under investigation and SNX 482). Then, the inhibitory effect of the compound under investigation was evaluated as % of the remaining inward current, normalized to the internal control. […] All data were expressed as mean±S.E

Cav2.3 [3] = target: T1, Cav2.3; conditions: read-out: IC50 against Cav2.3; cited from earlier work
Target sequence in this assay (Q15878 whole entry): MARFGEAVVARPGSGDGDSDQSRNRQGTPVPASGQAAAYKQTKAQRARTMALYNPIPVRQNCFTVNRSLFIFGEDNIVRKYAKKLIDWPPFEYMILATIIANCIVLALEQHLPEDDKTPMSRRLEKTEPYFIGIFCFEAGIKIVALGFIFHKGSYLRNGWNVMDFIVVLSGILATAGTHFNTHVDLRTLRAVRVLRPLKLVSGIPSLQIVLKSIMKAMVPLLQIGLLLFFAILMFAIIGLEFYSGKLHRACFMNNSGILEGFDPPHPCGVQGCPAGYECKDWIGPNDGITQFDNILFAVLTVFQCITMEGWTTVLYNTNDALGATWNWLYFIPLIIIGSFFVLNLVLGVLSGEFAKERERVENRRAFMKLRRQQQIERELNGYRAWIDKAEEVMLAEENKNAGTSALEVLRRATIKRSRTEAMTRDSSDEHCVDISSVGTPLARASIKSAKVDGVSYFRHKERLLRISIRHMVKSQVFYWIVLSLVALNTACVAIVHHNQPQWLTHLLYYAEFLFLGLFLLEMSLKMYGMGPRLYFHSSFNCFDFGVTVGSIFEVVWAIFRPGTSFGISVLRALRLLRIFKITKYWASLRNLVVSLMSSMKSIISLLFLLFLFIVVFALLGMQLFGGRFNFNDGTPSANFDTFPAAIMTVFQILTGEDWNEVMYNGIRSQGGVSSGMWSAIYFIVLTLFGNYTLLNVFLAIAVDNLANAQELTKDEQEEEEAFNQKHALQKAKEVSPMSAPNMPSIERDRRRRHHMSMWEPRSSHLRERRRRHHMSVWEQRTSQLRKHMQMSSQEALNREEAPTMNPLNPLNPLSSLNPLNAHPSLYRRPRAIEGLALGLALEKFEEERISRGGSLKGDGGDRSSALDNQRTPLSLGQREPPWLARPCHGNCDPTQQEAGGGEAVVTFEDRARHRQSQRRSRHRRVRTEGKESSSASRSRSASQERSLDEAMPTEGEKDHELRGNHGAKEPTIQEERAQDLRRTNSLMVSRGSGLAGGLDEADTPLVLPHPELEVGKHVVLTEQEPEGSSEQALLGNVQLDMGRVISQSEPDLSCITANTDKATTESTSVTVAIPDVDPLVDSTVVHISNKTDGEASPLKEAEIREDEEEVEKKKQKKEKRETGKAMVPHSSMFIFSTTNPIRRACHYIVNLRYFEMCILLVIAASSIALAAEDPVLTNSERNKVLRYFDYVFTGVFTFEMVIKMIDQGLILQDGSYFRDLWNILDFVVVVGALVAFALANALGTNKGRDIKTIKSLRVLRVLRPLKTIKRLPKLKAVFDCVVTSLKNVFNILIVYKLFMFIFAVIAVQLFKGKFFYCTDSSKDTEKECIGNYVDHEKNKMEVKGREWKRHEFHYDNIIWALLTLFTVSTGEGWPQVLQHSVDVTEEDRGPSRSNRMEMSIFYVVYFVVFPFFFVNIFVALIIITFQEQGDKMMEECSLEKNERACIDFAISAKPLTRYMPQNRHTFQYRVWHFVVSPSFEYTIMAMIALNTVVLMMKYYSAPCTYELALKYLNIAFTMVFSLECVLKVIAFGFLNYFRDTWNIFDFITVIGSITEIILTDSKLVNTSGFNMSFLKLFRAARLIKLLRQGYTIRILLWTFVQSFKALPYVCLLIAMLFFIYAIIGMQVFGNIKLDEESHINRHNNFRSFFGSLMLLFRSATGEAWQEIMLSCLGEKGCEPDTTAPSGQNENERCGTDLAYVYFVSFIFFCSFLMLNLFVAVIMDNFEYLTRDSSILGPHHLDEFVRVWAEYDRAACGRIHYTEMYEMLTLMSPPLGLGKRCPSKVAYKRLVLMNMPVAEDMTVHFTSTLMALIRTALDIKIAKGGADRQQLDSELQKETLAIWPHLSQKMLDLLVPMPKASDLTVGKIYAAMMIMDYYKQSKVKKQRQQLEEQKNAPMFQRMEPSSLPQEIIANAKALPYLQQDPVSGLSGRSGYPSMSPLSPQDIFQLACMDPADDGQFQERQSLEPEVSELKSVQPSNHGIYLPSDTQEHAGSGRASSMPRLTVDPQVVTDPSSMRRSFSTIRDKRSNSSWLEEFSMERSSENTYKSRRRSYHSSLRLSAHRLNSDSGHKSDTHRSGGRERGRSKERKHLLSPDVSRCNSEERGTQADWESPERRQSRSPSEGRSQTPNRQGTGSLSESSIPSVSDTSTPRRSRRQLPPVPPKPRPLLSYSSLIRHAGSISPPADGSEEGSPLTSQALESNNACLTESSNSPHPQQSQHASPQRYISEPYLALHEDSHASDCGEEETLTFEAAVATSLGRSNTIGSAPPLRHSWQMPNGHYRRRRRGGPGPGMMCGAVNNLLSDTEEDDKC

Row | Compound | IC50 (Cav2.3 [1]) [nM] | IC50 [2] [nM] | IC50 (Cav2.3 [3]) [nM]
1 | CCN([C@H](c1ccc(F)cc1)C(F)(F)F)S(=O)(=O)c1ccc2c(c1)CN(C(=O)C(C)C)CC2 (stereo in doubt) [Example 6, N-ethyl-2-isobutyryl-N-(2,2,2-trifluoro-1-(4-fluorophenyl)ethyl)-1,2,3,4-tetrahydroisoquinoline-7-sulfonamide] | 398 | 87.1 | –
2 | CC(C)C(=O)N1CCc2ccc(S(=O)(=O)N(C)[C@H](c3ccc(F)cc3)C(F)(F)F)cc2C1 [Example 9, (R)-2-isobutyryl-N-methyl-N-(2,2,2-trifluoro-1-(4-fluorophenyl)ethyl)-1,2,3,4-tetrahydroisoquinoline-7-sulfonamide] | 676 | 525 | –
3 | CCN([C@@H](C)c1ccc(C(F)(F)F)cc1)S(=O)(=O)c1ccc2c(c1)CCN(C(=O)C(C)C)C2 [Example 20, (S)-N-ethyl-2-isobutyryl-N-(1-(4-(trifluoromethyl)phenyl)ethyl)-1,2,3,4-tetrahydroisoquinoline-6-sulfonamide] | 1580 | 372 | –
4 | CC(C)C(=O)N1CCc2ccc(S(=O)(=O)N(CCF)C(c3ccc(F)cc3)C(F)(F)F)cc2C1 (stereo not drawn) [Example 49, N-(2-fluoroethyl)-2-isobutyryl-N-(2,2,2-trifluoro-1-(4-fluorophenyl)ethyl)-1,2,3,4-tetrahydroisoquinoline-7-sulfonamide] | 513 | 204 | –
5 | SNX-482 (GVDKAGCRYMFGGCSVNDDCCPRLGCHSLFSYCAWDLTFSD; UniProt P56854 1-41, looked up) | – | – | 15 to 30

More lines, main results first:

Row | IC50 (Cav2.3 [1]) [nM] | IC50 [2] [nM] | Compound | IC50 (Cav2.3 [3]) [nM]
6 | 661 | 251 | CCN([C@@H](C)c1ccc(C(F)(F)F)cc1)S(=O)(=O)c1ccc2c(c1)CN(C(=O)C(C)C)CC2 [Example 1, (S)-N-ethyl-2-isobutyryl-N-(1-(4-(trifluoromethyl)phenyl)ethyl)-1,2,3,4-tetrahydroisoquinoline-7-sulfonamide] | –
7 | 537 | 93.3 | CCN([C@@H](C)c1ccc(F)cc1)S(=O)(=O)c1ccc2c(c1)CN(C(=O)C(C)C)CC2 [Example 12, (S)-N-ethyl-N-(1-(4-fluorophenyl)ethyl)-2-isobutyryl-1,2,3,4-tetrahydroisoquinoline-7-sulfonamide] | –
8 | 724 | 1120 | CCN([C@@H](C)c1ccccc1)S(=O)(=O)c1ccc2c(c1)CN(C(=O)C1CC1)CC2 [Example 14, (S)-2-(cyclopropanecarbonyl)-N-ethyl-N-(1-phenylethyl)-1,2,3,4-tetrahydroisoquinoline-7-sulfonamide] | –

From patent US20250136552A1, “ANTAGONISTS OF CAV 2.3” (LARIO THERAPEUTICS LIMITED, priority 2021, published 2025)
